Source: US20160243168A1, “ADOPTIVE CELL TRANSFER METHODS” (Cantex Pharmaceuticals, Inc., priority 2015, published 2016)
Where two headings read alike, the source gives them in different places.

Experiments:
[1] = molecular target: T1, binding of CXCL12 (SDF-1) to CXCR4 (Homo sapiens, UniProt P48061); experiment: in vitro inhibition assay of CXCL12 binding to CXCR4 (plate ELISA); settings: recombinant human CXCL12 coated plate, recombinant CXCR4, absorbance 450 nm
T1 construct: purchased R&D Systems (CXCL12); Abnova (CXCR4)
Experimental: Polyvinyl 96-well high bind microplates (Corning Life Sciences, Corning, N.Y.) were coated with 0.5 μg/well of recombinant human CXCL12 (R&D Systems, Minneapolis, Minn.). Plates were incubated overnight at 4° C. and washed three times with PBS-0.05% Tween-20 (PBST). Separately, a constant amount of recombinant CXCR4 (Abnova, Taipei, Taiwan, 100 μL containing 0.8 μg/mL in PBST-0.1% BSA) was incubated with an equal volume of serially diluted ODSH (0.001-1,000 μg/mL in PBST-BSA) overnight at 4° C. The following day, 50 μL of CXCR4-ODSH mix was transferred to each respective CXCL12-coated well and incubated at 37° C. for 2 h. Wells were then washed four times with PBST. To detect bound CXCR4, 50 μL of a mouse anti-human CXCR4 antibody (R&D Systems, Minneapolis, Minn.) (1 μg/mL, in PBST) was added to each well, the mixture was incubated for 1 h at room temperature, and the wells were washed again four times with PBST. Horse-radish peroxidase-conjugated secondary antibody (R&D Systems, Minneapolis, Minn.) (50 μL per well) was added, wells were incubated for 1 h at room temperature, and then washed once with PBST. […] Absorbance at 450 nm was read using an automated microplate reader. IC50 values were determined from the plot of absorbance values vs. concentrations of ODSH.

anticoagulant activity = experiment: USP anticoagulant assay; assay type: biochemical; settings: seven serial 1.2 kg batches
Xa [2] = experiment: anti-Xa activity assay (plasma treated with Russell viper venom); assay type: biochemical; settings: seven serial 1.2 kg batches
Description: Another measure of ODSH's anticoagulant activity is its anti-Xa activity which can be determined in an assay carried out using plasma treated with Russell viper venom.

IIa = IIa (Homo sapiens, UniProt P00734+P01008); experiment: anti-IIa activity assay; assay type: biochemical; settings: seven serial 1.2 kg batches
[3] = test system: patients with newly diagnosed acute myeloid leukemia (AML); experiment: single arm open-label clinical study, induction chemotherapy plus ODSH; assay type: in vivo, human
Experimental: A single arm open-label clinical study was conducted at multiple trial sites (University of Utah, Georgia Regents University, and Medical University of South Carolina) in patients with newly diagnosed acute myeloid leukemia (AML), seeking to confirm that ODSH could accelerate platelet and white blood cell (WBC) recovery in patients receiving induction chemotherapy with a regimen known to have myelosuppressive side effects.
All patients received the following standard (“7+3”) induction regimen, • Idarubicin (12 mg/m^2/day) by short intravenous infusion on Days 1, 2, and 3; and • Cytarabine (100 mg/m^2) as a continuous intravenous infusion over 24 hours (Days 1 through 7).
All patients also received ODSH as an intravenous bolus immediately after the idarubicin dose on Day 1, at a dose of 4 mg/kg, followed by a continuous intravenous infusion at a dose of 0.25 mg/kg/hr for a total of 7 days (Days 1 through 7).
Twelve patients were enrolled. The median age was 56 (range 22-74). Based on cytogenetic, molecular, or antecedent hematologic disorder, 9 of 12 patients fell into the intermediate or poor risk categories. […] Complete remission at the end of the induction cycle was assessed using International Working Group (IWG) criteria (see, e.g., Cheson et al., J. Clin. Oncol. 21:4642 (2003)). […]

bone marrow cells = experiment: serial bone marrow biopsies in the AML trial; assay type: in vivo, human
Description: Bone marrow biopsies were obtained in the AML trial described in Example 1.
FIGS. 2A-2C are photomicrographs of biopsies from one of the patients.

Xa [4] = settings: Rao et al. 2010; cited from earlier work

T1 sequence (P48061 22-89 limits assumed): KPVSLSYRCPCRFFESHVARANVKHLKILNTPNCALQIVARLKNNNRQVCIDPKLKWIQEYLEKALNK

Row | Substance | IC50 for inhibition of binding of CXCL12 (SDF-1) to CXCR4 [1] [µg/mL] | USP anticoagulant activity (anticoagulant activity) | anti-Xa activity (Xa [2]) | anti-IIa activity (IIa) | myelosuppressive side effects of the idarubicin+cytarabine regimen ([3]; AML patients) | Complete response with first induction cycle ([3]; current study, n = 12, morphologic complete remission by IWG criteria) [%] | bone marrow biopsy appearance (bone marrow cells; Day 14 of the induction cycle, one patient) | bone marrow biopsy appearance (bone marrow cells; Day 28, one patient) | anti-Xa activity (Xa [4])
1 | 2-O, 3-O desulfated heparin [ODSH] | 0.010 | 7±0.3 U/mg | 1.9±0.1 U/mg | 1.2±0.1 U/mg | significantly attenuated | 92 | unexpected and significant depletion of normal bone marrow cells | no evidence of leukemia and restoration of normal bone marrow appearance and function | –
2 | unfractionated heparin [reference compound] | – | 165-190 U/mg | 165-190 U/mg | 165-190 U/mg | – | – | – | – | 165-190 U/mg
